Patent US20230416802A1, “SPECIFIC SUBSTRATES AND PRODUCTS OF HSD17B13 AS MARKERS OF LIVER DISEASE AND BIOMARKERS FOR LIVER DISEASE TREATMENT” (INIPHARM, INC., priority 2020, published 2023)

Each molecule was assayed against T1, HSD17B13 enzyme (Homo sapiens, UniProt Q7Z5P4) (assay: HSD17B13 activity assay using NADH fluorescence). Conditions: substrate at 3.3 μM; activity relative to positive control LTB3.
T1 construct: His; made in house; host or cells: E. coli
T1 sequence (Q7Z5P4 20-300): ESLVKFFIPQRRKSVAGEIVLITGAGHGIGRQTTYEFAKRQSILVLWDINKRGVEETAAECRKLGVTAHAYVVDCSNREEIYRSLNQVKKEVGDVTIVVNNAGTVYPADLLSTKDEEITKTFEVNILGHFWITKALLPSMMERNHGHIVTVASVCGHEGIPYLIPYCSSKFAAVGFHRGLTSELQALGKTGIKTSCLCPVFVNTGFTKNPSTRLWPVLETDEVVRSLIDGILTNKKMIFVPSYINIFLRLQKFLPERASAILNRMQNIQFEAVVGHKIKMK
Format: biochemical
Procedure: A fluorescence based HSD17B13 activity assay was used to monitor the fluorescence of NADH, which is generated from NAD+ during the dehydrogenation of the substrate LTB3 or other substrates. Reactions were performed in a 384-well plates (Greiner; #655076) in a 20 μl reaction volume containing the following reagents (final concentrations): 3 mM NAD^+ (Sigma; #N0623); 125 nM HSD17B13 enzyme (in-house E. coli expressed His-tagged, purified, soluble protein); 1 M potassium phosphate buffer, pH 7.4; 1% DMSO; and a range of substrate concentrations ([…]). Reactions proceeded for […] at 26.5° C. Generation of NADH was measured as the fluorescence signal (Excitation at 340 nm and Emission at 445 nm) at 3 hours minus the baseline fluorescence at t=0. Fluorescence signals in the absence of added substrate (negative control values), were subtracted from all values so that the results reflected substrate-dependent production of NADH. NADH standards were included to allow the conversion of relative fluorescence units into rates of enzyme activity. Ten concentrations of substrate were tested (in the range of 30 mM-2.5 nM), and two independent assessments were performed at each concentration. Activity was compared to the positive control, LTB3, at a concentration of […]. Results are reported as the ratio: [Activity of compound at 30 mM]/[Activity of LTB3 at […]].

| SMILES | Relative oxidation (%) at 3.3 μM |
| --- | --- |
| CCCCCCCCCCCC(=O)SCCNC(=O)CCNC(=O)[C@H](O)C(C)(C)COP(=O)(O)OP(=O)(O)OC[C@H]1O[C@@H](n2cnc3c(N)ncnc32)[C@H](O)[C@@H]1OP(=O)(O)O [Lauryl coenzyme A, S-[2-[3-[[(2R)-4-[[[(2R,3S,4R,5R)-5-(6-aminopurin-9-yl)-4-hydroxy-3-phosphonooxyoxolan-2-yl]methoxy-hydroxyphosphoryl]oxy-hydroxyphosphoryl]oxy-2-hydroxy-3,3-dimethylbutanoyl]amino]propanoylamino]ethyl] dodecanethioate] | 35 (AT 3.3 μM) % |

Same assay, conditions: substrate at 10 μM; activity relative to positive control LTB3

| SMILES | Relative oxidation (%) at 10 μM |
| --- | --- |
| CC(C(=O)O)C(=O)SCCNC(=O)CCNC(=O)[C@H](O)C(C)(C)COP(=O)(O)OP(=O)(O)OC[C@H]1O[C@@H](n2cnc3c(N)ncnc32)[C@H](O)[C@@H]1OP(=O)(O)O (stereo partly drawn) [Methyl malonyl coenzyme A, (9R)-1-[(2R,3S,4R,5R)-5-(6-Amino-9H-purin-9-yl)-4-hydroxy-3-(phosphonooxy)oxolan-2-yl]-3,5,9-trihydroxy-8,8,20-trimethyl-3,5,10,14,19-pentaoxo-2,4,6-trioxa-18-thia-11,15-diaza-3λ5,5λ5-diphosphahenicosan-21-oic acid] | 29 (at 10 μM) % |

Same assay, conditions: substrate at 30 μM; activity relative to positive control LTB3; NADH production by purified HSD17B13

| SMILES | Relative oxidation at 30 μM (%) |
| --- | --- |
| CCCCC/C=C\C[C@@H](O)/C=C/C=C\C/C=C\CCCC(=O)O [12(R) HETE] | 60% |
| CCCCC[C@@H](O)/C=C/C=C\CCCCCCCCCC(=O)O [15 (R) HEDE] | 46% |
| CCCCCCCC[C@@H](O)/C=C/C=C\C=C\[C@@H](O)CCCC(=O)O [Leukotriene B3 (LTB3), 5S,12R-dihydroxy-6Z,8E,10E-eicosatrienoic acid] | 100% |
| CC/C=C\C/C=C\C[C@H](O)\C=C/C=C/C=C/[C@H](O)C/C=C\CCC(=O)O [Maresin 1, 7R,14S-dihydroxy-4Z,8E,10E,12Z,16Z,19Z-docosahexaenoic acid] | 22% |
| CC/C=C\C[C@H](O)/C=C/C=C\C=C\[C@@H](O)C/C=C\C/C=C\CCC(=O)O [Protectin DX, 10(S),17(S)-dihydroxy-4Z,7Z,11E,13Z,15E,19Z-docosahexaenoic acid] | 105% |
| CC/C=C\C[C@H](O)/C=C/C=C\C=C\C=C\[C@@H](O)[C@@H](O)C/C=C\CCC(=O)O [Resolvin D1, 7S,8R,17S-trihydroxy-4Z,9E,11E,13Z,15E,19Z-docosahexaenoic acid] | 135% |
| CC[C@@H](O)/C=C/C=C\C[C@@H](O)/C=C/C=C/C=C\[C@@H](O)CCCC(=O)O [Resolvin E1, 5S,12R,18R-trihydroxy-6Z,8E,10E,14Z,16E-eicosapentaenoic acid] | 45% |
